Data from patent US20240277658A1, “NLRP3 ACTIVATORS FOR USE IN THE TREATMENT OF INFECTIOUS DISEASES OR CANCER BY ACTIVATING NLRP3 INFLAMMASOME” (ALBERT-LUDWIGS-UNIVERSITÄT FREIBURG, priority 2020, published 2024).
“And” between values parts separate entries of the source, which are not always exact repeats. Identical values can stand only once. Like-named read-outs stand apart in the source and are kept apart here.

What was measured:
BMDCs = experiment: LDH release (lytic cell death, pyroptosis) from LPS-primed BMDCs; type: cell-based, mouse; conditions: compound 50 μM; for Average (% positive control): LDH release, positive control nigericin 5 μM; for cytotoxicity at 50 µM: Mus musculus, BMDC, LPS-primed BMDCs
Method: (§1) This was tested in cell culture in several different in vitro assays classically used to investigate inflammasome activation. These include measuring inflammasome-dependent lytic cell death (pyroptosis) by detecting release of the cytosolic enzyme lactate dehydrogenase (LDH) using a commercial colorimetric assay and release of proinflammatory cytokines like IL-1β by enzyme-linked immunosorbent assay (ELISA), analyzing cleavage and activation of caspase-1 and IL-1β by immunoblotting and immunofluorescence imaging of ASC speck formation. Lytic cell death was determined via LDH release. Assay results for compounds are illustrated in the Tables below, wherein the concentration of the compounds tested had been 50 μM or as indicated in the table, and the concentration of the known activators has been tested with 5 μM of nigericin, 100 μM of each R837 and CL097. For classification of the activity of a given molecule, release of IL-1β was quantified as % of IL-1% of a respective control activator used for the experiment (highlighted in tables with bold letters). The compounds listes in Table 1 were classified into 4 groups depending on their ability to induce the NLRP3 inflammasome activation, assessed by % IL-1β release as compared to the positive control.
(§2) Mouse bone marrow-derived dendritic cells (BMDCs) were isolated from femurs and tibias previously described (Gross, Olaf, 2012, “Measuring the inflammasome”, Methods in molecular biology, Clifton, N.J., 844, pp. 199-222.). In brief, tibias and femurs were carefully removed and put to sterile 70% ethanol for 1 minute. Using a 22-G needle attached to a 20 ml-syringe filled with sterile flushing medium, the bone marrow was pressed through the mesh of a […] cell strainer. The cells were spun down by centrifugation at 400×g, 4° C. for 5 minutes and red blood cells lysed by resuspension and incubation for 5 minutes at room temperature in RBC lysis buffer. 9 ml of flushing medium were added and cells were again spun down by centrifugation at 400×g, 4° C. for 5 minutes. Cells were then resuspended in BMDC medium (RPMI, 10% fetal bovine serum, 1% penicillin-streptomycin100 U/ml, 20 ng/ml recombinant murine GM-CSF), counted and plated at a density of 0.5×10^6 cells ml^−1 in 10 ml medium and incubated at 37° C., 5% CO2 in a humidified incubator. After 2 days, 10 ml of fresh medium were added to the cells and after 4 days, the medium was fully exchanged to 20 ml of fresh medium. The cells were allowed to differentiate for 6 to 8 days before usage.
(§3) For canonical inflammasome activation BMDCs after 7-9 days of differentiation were harvested and counted with a Neubauer Chamber (Hecht Assistant) and the concentration was set to 1 Mio cells ml^−1. 100 μl cell suspension per well were seeded in 96-well plates. The cells were primed with 50 ng ml^−1 E. coli K12 ultra-pure LPS for 3 hours and subsequently treated with canonical inflammasome activators or experimental compounds for 3 hours if not indicated differently (incubation time FIG. 4D, 5, 7, 8, 11, 13-18: 3 h, FIG. 12: 4 h). Concentrations of the stimuli were as follows if not indicated differently: 5 μM nigericin, 100 μM imiquimod (also known as R837), 100 μM CL097, 100 μM R848, […] poly(dA:dT), 300 μg ml^−1 MSU. If an inhibitor was used before stimuli treatment, the inhibitor was added after 2.5 hours of priming and it was incubated for 30 minutes before inflammasome activation. Inhibitors were used as follows: 3 μM MCC950, 45 mM KCl, 30 μM ebselen (2-Phenyl-1,2-benzoselenazol-3-one), 5 μM cytochalasin D (see FIGS. 8, 11, 12 and 17).
(§4) All inflammasome stimulations were performed in three technical replicates for each condition. […]

NLRP3 inflammasome = target: T1, NLRP3 inflammasome (Mus musculus, UniProt Q8R4B8); experiment: IL-1β release from LPS-primed BMDCs (ELISA) as readout of NLRP3 inflammasome activation; type: cell-based; conditions: compound 50 μM; for Average (% positive control): IL-1β release, positive control nigericin 5 μM; for Average IL-1β / IL-1β: LPS-primed BMDCs; for IL-1β: single replicates
T1 construct: endogenous in cells; host or cells: primary mouse bone marrow-derived dendritic cells (BMDCs), LPS-primed
Method: as §1, §2, §3, §4

[1] = read-out: Average LDH release (% of max.)
[2] = single replicates, read-out: LDH release (% of max.)

T1 sequence (Q8R4B8 whole entry): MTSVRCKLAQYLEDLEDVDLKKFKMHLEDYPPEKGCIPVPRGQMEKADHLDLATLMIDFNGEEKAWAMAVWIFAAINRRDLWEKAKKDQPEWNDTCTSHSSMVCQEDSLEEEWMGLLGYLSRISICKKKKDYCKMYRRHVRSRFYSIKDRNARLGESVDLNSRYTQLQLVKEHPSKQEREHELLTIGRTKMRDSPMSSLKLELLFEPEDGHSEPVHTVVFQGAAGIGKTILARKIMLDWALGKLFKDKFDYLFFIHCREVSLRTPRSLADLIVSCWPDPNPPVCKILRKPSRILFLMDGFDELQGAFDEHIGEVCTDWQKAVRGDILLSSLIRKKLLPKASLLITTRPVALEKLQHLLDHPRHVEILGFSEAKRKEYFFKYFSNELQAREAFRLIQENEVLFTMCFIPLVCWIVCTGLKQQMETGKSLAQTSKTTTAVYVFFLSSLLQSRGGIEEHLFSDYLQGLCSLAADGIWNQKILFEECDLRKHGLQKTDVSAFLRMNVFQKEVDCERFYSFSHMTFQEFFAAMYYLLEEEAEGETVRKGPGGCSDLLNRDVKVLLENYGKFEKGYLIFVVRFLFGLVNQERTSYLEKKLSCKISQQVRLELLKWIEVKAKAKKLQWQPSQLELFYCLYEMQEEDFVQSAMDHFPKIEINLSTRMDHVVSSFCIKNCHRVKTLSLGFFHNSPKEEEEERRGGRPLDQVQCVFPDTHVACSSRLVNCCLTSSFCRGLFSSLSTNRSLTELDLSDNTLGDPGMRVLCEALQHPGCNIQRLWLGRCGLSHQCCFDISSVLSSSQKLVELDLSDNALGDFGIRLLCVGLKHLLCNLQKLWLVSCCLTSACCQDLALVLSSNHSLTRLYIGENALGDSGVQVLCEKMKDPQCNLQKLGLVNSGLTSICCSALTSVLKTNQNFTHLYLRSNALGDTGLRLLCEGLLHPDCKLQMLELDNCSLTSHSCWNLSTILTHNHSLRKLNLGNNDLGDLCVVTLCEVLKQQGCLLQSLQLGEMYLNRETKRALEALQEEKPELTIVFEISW

SMILES | Average (% positive control) (BMDCs) | cytotoxicity at 50 µM (BMDCs; [1]) | cytotoxicity at 50 µM (BMDCs; [2]) | Average (% positive control) (NLRP3 inflammasome) | Average IL-1β (NLRP3 inflammasome) | IL-1β (NLRP3 inflammasome)
CC1Oc2ccc(NC(=O)Nc3ccccc3)cc2NC1=O (stereo not drawn) [L01.110, 3-(2-methyl-3-oxo-3,4-dihydro-2H-1,4-benzox-azin-6-yl)-1-phenylurea] | 46.015 % positive control | 33.7% | 34.8% | 36.599 % positive control | 2.624 ng/mL | 2.505 ng/mL and 2.943 ng/mL and 2.423 ng/mL
O=C(NCc1nc(-c2cccnc2)no1)Nc1cccc2cnccc12 [L01.062, 1-(isoquinolin-5-yl)-3-{[3-(pyridin-3-yl)-1,2,4-oxadiazol-5-yl]-methyl}urea] | 18.117 % positive control | 13.3% | 13.4% | 1.141 % positive control | 0.082 ng/mL | 0.084 ng/mL and 0.087 ng/mL and 0.074 ng/mL
O=C1CN(c2ccccc2)C(=O)N1Cc1nc(-c2ccco2)no1 [L01.033, 3-{[3-(furan-2-yl)-1,2,4-oxadiazol-5-yl]methyl}-1-phenylimidazolidine-2,4-dione] | 11.108 % positive control | 8.13% | 8% | 2.698 % positive control | 0.193 ng/mL | 0.197 ng/ml (2×) and 0.186 ng/ml
CCCCOC(=O)c1ccc(NC(=O)NC(CC(C)C)c2nc(-c3nnc[nH]3)no2)cc1 (stereo not drawn) [L01.135, butyl 4-[{{3-methyl-1-[3-(4H-1,2,4-triazol-3-yl)-1,2,4-oxadiazol-5-yl]-butyl}carbamoyl)amino]-benzoate] | 11.085 % positive control | 8.11% | 8.89% | 0.975 % positive control | 0.070 ng/mL | 0.079 ng/mL and 0.073 ng/mL and 0.057 ng/mL
COc1cccc(C)c1NC(=O)NC(c1nc(-c2cccnc2)no1)C(C)C (stereo not drawn) [L01.056, 1-(2-methoxy-6-methyl-phenyl)-3-{2-methyl-1-[3-(pyridin-3-yl)-1,2,4-oxadiazol-5-yl]propyl}-urea] | 13.256 % positive control | 9.7% | 9.34% | 0.905 % positive control | 0.065 ng/mL | 0.060 ng/mL and 0.073 ng/mL and 0.062 ng/mL
COc1ccc(NC(=O)NCc2nc(Cc3ccccc3)no2)cc1 [L01.125, 3-[(3-benzyl-1,2,4-oxadiazol-5-yl)methyl]-1-(4-methoxyphenyl)-urea] | 9.397 % positive control | 6.87% | 7.72% | 0.988 % positive control | 0.071 ng/mL | 0.080 ng/mL and 0.071 ng/mL and 0.061 ng/mL
